From patent US9340568B2, “Solid forms of an antiviral compound” (Gilead Pharmasset LLC, priority 2013, dated 2016) come the findings set out here.

The nature of this data set: Dynamic vapor sorption (DVS) moisture sorption isotherm. The data set is classed as physicochemical. The conditions noted are these: relative humidity (RH) of 90%, sorption cycle 1. The protocol: DVS isotherms were generated on a Surface Measurement Systems Dynamic Vapor Sorption Advantage moisture sorption analyzer. Water adsorption and desorption were studied as a function of relative humidity over the range of 0 to 90% RH using 10% RH steps with a fixed equilibration time of 60 minutes per step.

For `CC(C)OC(=O)[C@H](C)N[P@](=O)(OC[C@H]1O[C@@H](n2ccc(=O)[nH]c2=O)[C@](C)(F)[C@@H]1O)Oc1ccccc1` [Compound I, Form 8, (S)-isopropyl 2-(((S)-(((2R,3R,4R,5R)-5-(2,4-dioxo-3,4-dihydropyrimidin-1(2H)-yl)-4-fluoro-3-hydroxy-4-methyltetrahydrofuran-2-yl)methoxy)(phenoxy)phosphoryl)amino) propanoate], the “change in mass as measured by dynamic vapor sorption (DVS)” value is “about 0.17%”.

In the case of `CC(C)OC(=O)[C@H](C)N[P@](=O)(OC[C@H]1O[C@@H](n2ccc(=O)[nH]c2=O)[C@](C)(F)[C@@H]1O)Oc1ccccc1` [Compound I, Form 7, (S)-isopropyl 2-((S)-(((2R,3R,4R,5R)-5-(2,4-dioxo-3,4-dihydropyrimidin-1(2H)-yl)-4-fluoro-3-hydroxy-4-methyltetrahydrofuran-2-yl)methoxy)(phenoxy)phosphorylamino) propanoate], the “change in mass as measured by dynamic vapor sorption (DVS)” value is listed as “about 0.15%”.
